Reference: patent US20260183396A1, “CXCR3 OVEREXPRESSION IN CAR-NK CELLS PRIMES MIGRATION/HOMING INTO THE TUMOR MICROENVIRONMENT” (DANA-FARBER CANCER INSTITUTE, INC., priority 2022, published 2026)

How the values were obtained:
NK cells [1] = assay: Immune cell toxicity assays, NK cells; type: cell-based; settings: 72 hours of high dose exposure; regardless of IL-2 or co-culture with TILs
Procedure: Immune Cell Toxicity Assays. […] Following treatment, samples were stained with anti-CD45, anti-CD3, anti-CD4, anti-CD8, and anti-CD56 antibodies (Table 1), as well as Zombie Green live/dead (Biolegend 423111) and analyzed by flow cytometry as described above. Data were analyzed using FlowJo software version 10.5.3. As an orthogonal measure of viability, CellTiter-Glo was performed on primary T-cells and NK cells.
CellTiter-Glo luminescent cell viability assay. Cell viability was assessed using the CellTiter-Glo Luminescent Cell Viability assay (Promega, G7571) according to manufacturer's instructions. […] All conditions were tested in triplicate and plates were read on a Tecan Infinite Mplex Microplate Reader.

MPM tumor cell lines = assay: 3D vascular model of NK cell migration; type: cell-based, human
Procedure: 3D vascular model. To generate the tumor-vascular model, H226 spheroids were mixed with collagen rat tail hydrogel (2.5 mg/ml) and injected into the center gel region of the 3D microfluidic chamber (10-15 μL per each microfluidic chamber). After incubation for 30 minutes at 37° C. in sterile humidity chambers, the side wall of one flanked channel (media channel) was coated with a 150 μg/ml collagen solution in PBS to allow for better adhesion of eCs to the channel. After 15 mins, the channel was washed once with media. To create the 3D vessel, 25 μL cell suspension of 3×10^6 cells/ml human umbilical vein endothelial cells (HUVECs; C2519AS, Lonza) were injected in the media channel coated with collagen. The channel was rotated twice to create a confluent hollow-lumen 3D vessel. To allow the cells to attach to the media-gel interface and form a monolayer, the chip was incubated with cells face down for 15 mins. Next, 50 μL cell suspension was reinjected, and the chip was flipped to cover the upper part of the 3D vascular channel. After 90 mins of incubation in the humidity chamber at 37° C., cell culture media was gently added to both channels and further incubated to form a confluent monolayer. After vessel formation, NK cells (labelled with cell tracker) were added to the 3D vessel at 2:1 E:T ratio. […] NK cell migration+/−vessel was quantified at 24 hours. Image capture and analysis was performed using a fluorescence confocal microscope and processing software. The 3D vascular channels were rinsed in PBS and fixed with 4% PFA for 15 min at room temperature. Cell membranes were permeabilized with 0.1% Triton X-100 for 5 min at room temperature and washed twice with PBS. HUVEC cells were stained for F-actin with green phalloidin (Thermo Fisher Scientific A12379) and Hoechst 33342. Images were captured on a Nikon Eclipse 80i fluorescence microscope equipped with Z-stack (Prior) and CoolSNAP CCD camera (Roper Scientific).

NK cells [2] = settings: systemic administration, murine models; related manuscript; cited from earlier work
STING = STING immunoblotting in NK cells and TILs; type: cell-based, human; settings: NK cells
Procedure: Immunoblotting. […] Imaging of blots and was performed using the LI-COR Odyssey system.

CXCR3 = molecular target: T1, CXCR3 (Homo sapiens, UniProt P49682); assay: CXCR3 surface expression after hCXCL10, flow cytometry; type: cell-based; settings: NK cells, NK92, Jurkat; 200 ng hCXCL10
T1 construct: endogenous in cells; host or cells: primary NK cells (cNK, CIML); NK92 and JURKAT CXCR3+ lines; also CAR and CAR-CXCR3 transduced NK cells
T1 sequence (P49682 1-368): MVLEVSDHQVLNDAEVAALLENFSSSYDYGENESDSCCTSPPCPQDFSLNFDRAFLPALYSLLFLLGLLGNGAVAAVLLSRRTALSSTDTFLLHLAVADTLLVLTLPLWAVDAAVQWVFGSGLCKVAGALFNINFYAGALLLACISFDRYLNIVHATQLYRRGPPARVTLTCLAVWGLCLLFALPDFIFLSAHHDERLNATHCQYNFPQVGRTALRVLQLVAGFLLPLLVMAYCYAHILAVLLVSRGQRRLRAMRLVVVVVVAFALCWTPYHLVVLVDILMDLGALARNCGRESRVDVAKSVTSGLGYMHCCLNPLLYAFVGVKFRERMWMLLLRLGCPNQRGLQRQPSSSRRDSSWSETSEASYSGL
Procedure: CXCR3 is degraded from the cell surface of primary NK cells and the NK cell lines NK92 and […] both expressing CXCR3, after stimulation with 200 ng of recombinant human C—X—C Motif Chemokine Ligand 10 (hCXCL10) at different time points, as illustrated in FIG. 17A-FIG. 18B, measured by flow cytometry and expressed as median fluorescent intensity (MFI) of the CXCR3 receptor. CXCR3 is also degraded from CAR and CAR-CXCR expressing cNK cells. FIG. 18C-FIG. 18D illustrate CXCR3 surface expression as measured by flow cytometry of primary NK cells (cNK) expressing CAR, CAR-CXCR3 or control, stimulated with 200 ng of recombinant human CXCL10 stimulation at different time points (0 and 60 minutes). CXCR3 is degraded from cNK NT, CAR-cNK, and CAR-NK CXCR+ cell surfaces after 1 hour of hCXCL10 treatment (FIG. 19C). CXCR3 is also degraded from cytokine-induced memory-like (CIML) NK NT, CIML CAR-NK, CIML CAR-NK CXCR+ after 1 hour of hCXCL10 treatment (FIG. 19D).

In the case of `Nc1ncnc2c1ncn2[C@@H]1O[C@@H]2CO[P@@](=O)(S)O[C@@H]3[C@H](O)[C@@H](CO[P@@](=O)(S)O[C@H]2[C@H]1F)O[C@H]3n1cc(F)c2c(=O)nc[nH]c21` [TAK-676], the “cytotoxicity in human NK cells” value (NK cells [1]) is reported as “no significant cytotoxicity”, the “overcoming a human vascular barrier” value (MPM tumor cell lines; ex vivo model) is reported as “especially potent” and the NK cell migration (MPM tumor cell lines; presence and absence of the vascular barrier) is reported as “enhanced NK cell migration”. For the same compound, the “trafficking and activation of NK cells” value (NK cells [2]) was “enhanced”.

For `CCN(CC)CCCC(C)Nc1ccnc2cc(Cl)ccc12` (stereo not drawn) [chloroquine], the “effect on ADU-S100 induced STING degradation” value (STING) was “prevented”.

With “hCXCL10: recombinant human C—X—C Motif Chemokine Ligand 10” the “CXCR3 cell surface expression” value (CXCR3) was “lost from the cell surface”.
